Results from paper PMC9731865, “Gambogic acid and juglone inhibit RNase P through distinct mechanisms” (The Journal of Biological Chemistry, 2022).

Key:
B. subtilis RNase P = B. subtilis RNase P activity assay (FP, real-time); type: biochemical; conditions: ratio of IC50 values
Protocol: Figure 4 Gambogic acid and juglone inhibit A. thaliana PRORP1 (green), human MRPP1/2/3 (red), and B. subtilis RNase P (blue). Compounds gambogic acid (A) and juglone (B) were incubated with enzyme at double the reaction concentration for 30 min prior to the addition of an equal volume of substrate to initiate the reaction. PRORP1 reactions (shown in green) were performed with 0.3 nM PRORP1 and 800 nM pre-tRNA containing 40 nM Fl-pre-tRNA at 25 °C in 30 mM MOPS pH 7.8, 5 mM MgCl2, 100 mM NaCl, 1 mM TCEP, 500 nM (12 μg/ml) yeast tRNA, 5 mM spermidine, 6.65 μg/ml BSA, and 0.01% NP-40. MRPP1/2/3 reactions (shown in red) were performed using 50 nM MRPP3, 500 nM MRPP1/2, 500 nM pre-tRNA containing 40 nM Fl-pre-tRNA at 37 °C in 50 mM MOPS (pH 7.8), 1 mM TCEP, 4.5 mM MgCl2, and 100 mM NaCl. B. subtilis RNase P reactions (shown in blue) were performed using 20 nM RNase P and 500 nM pre-tRNA containing 40 nM Fl-pre-tRNA at 37 °C in 50 mM Tris, pH 7.2, 5 mM MgCl2, 100 mM KCl, 500 nM (12 μg/ml) yeast tRNA, 20 mM dithiothreitol (DTT), 10 mM spermidine, and 0.01% NP-40. Equation 1 was fit to each dataset.
The inhibition of B. subtilis RNase P activity by gambogic acid and juglone was measured using a previously developed FP assay in real-time.^25 Reactions were performed under multiple turnover conditions using 20 nM RNase P and 500 nM Fl-pre-tRNA^Asp in 50 mM Tris (pH 7.2), 5 mM MgCl2, 100 mM KCl, 500 nM (12 μg/ml) yeast tRNA^mix, 20 mM dithiothreitol, 10 mM spermidine, and 0.01% NP-40 at 37 °C.

PRORP1 C373A = molecular target: T1, PRORP1 C373A (Arabidopsis thaliana, UniProt Q66GI4, C373A); assay: Time-dependent inactivation by juglone, PRORP1 C373A; type: biochemical, A. thaliana
T1 construct: made in house
T1 sequence (Q66GI4 77-572 C373A): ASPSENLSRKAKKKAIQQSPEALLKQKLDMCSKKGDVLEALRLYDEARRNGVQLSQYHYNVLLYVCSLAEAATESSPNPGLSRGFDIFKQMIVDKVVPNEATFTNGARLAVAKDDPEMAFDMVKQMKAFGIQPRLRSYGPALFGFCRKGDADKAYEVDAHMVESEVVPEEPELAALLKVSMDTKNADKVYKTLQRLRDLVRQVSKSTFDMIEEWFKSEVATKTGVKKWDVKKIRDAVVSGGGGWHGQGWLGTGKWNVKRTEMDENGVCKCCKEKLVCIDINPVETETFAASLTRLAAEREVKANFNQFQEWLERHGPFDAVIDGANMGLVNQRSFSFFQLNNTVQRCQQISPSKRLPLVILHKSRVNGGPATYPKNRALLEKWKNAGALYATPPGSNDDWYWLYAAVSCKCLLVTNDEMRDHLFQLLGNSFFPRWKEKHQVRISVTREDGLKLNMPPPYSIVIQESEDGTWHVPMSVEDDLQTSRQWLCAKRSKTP
Protocol: Given the multiple sites of cysteine modification, we wanted to identify the one(s) that potentially play a significant role in PRORP1 inactivation. Therefore, several cysteine-to-alanine point mutants were expressed, purified, and subjected to inhibition studies. We tested both single-site (C353A and C373A) and double-site (C353A/C373A and C222A/C353A) mutations. […] The value of kinact,app for each PRORP1 at varied concentrations of juglone was determined by fitting a single exponential equation (Equation 5) to the data (Fig. 10A). Unexpectedly, the values of kinact/KI (reflecting the inhibition of E + I to form EI∗) increased for a number of the PRORP1 variants: wildtype (0.001 ± 0.00004 μM^-1 min^-1), C353A (0.005 ± 0.002 μM^−1 min^−1), C373A (0.002 ± 0.0004 μM^-1 min^−1), C222A/C353A (0.003 ± 0.0001 μM^−1 min^−1), and C353A/C373A (0.0008 ± 0.0002 μM^-1 min^−1). These modest increases could be due to a decrease in the KI value or an increase in the value of kinact. […] Although, we cannot discount the possibility, however unlikely, that juglone may employ a mode of inhibition beyond cysteine residue modification that our crystal structures fail to capture.
Figure 10 Effects of PRORP1 cysteine mutations on juglone inactivation. […]
For the analysis of juglone, PRORP1 activity was measured with varying preincubation time and juglone concentration. […]

For CC(C)=CCC[C@]1(C)C=Cc2c(O)c3c(c(CC=C(C)C)c2O1)O[C@]12C(=C[C@@H]4C[C@H]1C(C)(C)O[C@@]2(C/C=C(/C)C(=O)O)C4=O)C3=O [gambogic acid], the “fold less potent against B. subtilis RNP RNase P than against PRORP1 and MRPP1/2/3” value (B. subtilis RNase P) was “at least 50 fold” and the “fold less potent against B. subtilis RNP RNase P than against PRORP1 and MRPP1/2/3” value (B. subtilis RNase P; listed as Gambogic acid) was “more than 50 fold”.
O=C1C=CC(=O)c2c(O)cccc21 [juglone, 5-hydroxy-1,4-naphthalenedione] showed a Ki (PRORP1 C373A) greater than 10 µM and a kinact/KI (PRORP1 C373A) of 33.3 M⁻¹ s⁻¹.
